Experimental data reported in publication PMC10458698, “Characterization of the interferences of systemic azole antifungal drugs with adrenal steroid biosynthesis using H295R cells and enzyme activity assays” (Current Research in Toxicology, 2023).
Values joined by “and” are separate entries in the source; they are usually repeats but may differ in a detail not shown here. Equal values may be shown once. Read-outs that look alike come from different tables or passages of the source.

Columns and labels:
H295R cells = assay: Steroidogenesis assay in forskolin-stimulated H295R cells, UHPLC-MS/MS; format: cell-based, human; details: 48 h
Procedure: Briefly, 200,000 cells/mL between passages 5 and 10 were seeded in a 24-well plate. After 24 h, the medium was replaced by fresh medium containing reference or test compounds. […] As a time zero control, complete medium was incubated without cells. After 48 h of incubation, the cell culture supernatant was collected and stored at −20 °C until steroid quantification was performed by ultra-high liquid chromatography tandem mass spectrometry (UHPLC-MS/MS). All experiments were performed three times independently in technical duplicates.
Using water, the sample volume was adapted to 1 mL. Samples were extracted using Oasis HLB 3 cc SPE cartridge (30 mg, 30 μm particle size, Waters, Massachusetts, USA). Columns were preconditioned with 1 mL ethyl acetate and water prior to application of samples. After sample loading, columns were washed three times with 1 mL methanol (10% v/v) and water before samples were eluted applying 0.75 mL ethyl acetate twice. Eluates were evaporated to dryness and reconstituted in 50 µL methanol. Samples were applied to a reverse phase column (Waters Acquity UPLC BEH C18, 1.7 μm, 2.1 mm × 150 mm). […] Applied mobile phases consisted of water, acetonitrile and formic acid (95/5/0.1; v/v/v and 5/95/0.1; v/v/v). For data analysis, Hunter software version B.09.00 (Agilent Technologies) was used. Lower limit of detection (LOD), lower limit of quantification (LLOQ), and upper limit of quantification (ULOQ) are shown in Table 1.

CYP17A1 17α-hydroxylase = target: T1, CYP17A1 17α-hydroxylase (Homo sapiens, UniProt P05093); assay: CYP17A1 17α-hydroxylase activity assay, microsomes of transfected COS-1 cells; format: biochemical; details: cell-free; for inhibition of CYP17A1 17α-hydroxylase: in words; for IC50: progesterone 500 nM, 10 min, read-out: IC50 CYP17A1 17α-hydroxylase mean
T1 construct: expressed in transfected cells; host or cells: COS-1 cells, transient transfection, microsomal fraction
T1 sequence (P05093 1-508): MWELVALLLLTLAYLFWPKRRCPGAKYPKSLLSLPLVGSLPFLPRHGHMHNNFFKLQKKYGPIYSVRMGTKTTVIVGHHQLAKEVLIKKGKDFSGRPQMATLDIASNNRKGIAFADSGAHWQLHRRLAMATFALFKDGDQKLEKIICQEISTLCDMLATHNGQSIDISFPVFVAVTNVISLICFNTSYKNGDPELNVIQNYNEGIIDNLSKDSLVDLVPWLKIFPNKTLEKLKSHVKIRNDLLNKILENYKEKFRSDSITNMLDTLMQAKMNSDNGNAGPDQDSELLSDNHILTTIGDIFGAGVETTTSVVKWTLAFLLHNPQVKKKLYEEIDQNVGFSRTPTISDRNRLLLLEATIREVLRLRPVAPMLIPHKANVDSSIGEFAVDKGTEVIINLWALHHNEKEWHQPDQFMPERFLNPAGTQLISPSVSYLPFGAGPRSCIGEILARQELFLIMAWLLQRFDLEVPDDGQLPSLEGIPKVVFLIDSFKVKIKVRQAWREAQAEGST
Procedure: (§1) Microsomes were prepared from COS-1 cells transiently transfected with plasmids for either CYP17A1 and POR for CYP17A1-hydroxylase assay (human CYP17A1 was available in our own plasmid collection after cloning into pcDNA3, POR was ordered from Genescript, Piscataway, USA, clone ID OHu25584C), CYP17A1, POR and cytochrome b5 for CYP17A1 17,20-lyase assay (cytochrome b5 was from Genescript, clone ID OHu09495D), POR and CYP21A2 (Genescript, CYP21A2 clone ID OHu18602D), or 3β-HSD2 (Genescript, clone ID OHu14034D). Transfection was performed using PEI and equal amounts of required plasmids with a total DNA amount of 8 µg per transfection of 3,000,000 cells. After overnight incubation, cells were washed with prewarmed PBS before adding ice-cold PBS. Cells were collected and centrifuged at 600 × g for 4 min at 4 °C, washed with ice cold PBS and centrifuged again. The pellet was resuspended in a resuspension buffer (20 mM Tris, pH 7.5, 50 mM KCl, 2 mM MgCl2, 0.25 M sucrose). Cells were disrupted with 30 S by a glass potter (2 cm^3) as described above. The homogenate was centrifuged for 20 min at 12,000 × g and 4 °C. Microsomes were pelleted by ultracentrifugation at 100,000 × g for 1 h at 4 °C. The pellet was resuspended in reaction buffer and the protein concentration determined using the Pierce Protein BCA kit as described above.
(§2) Microsomal protein (250 µg/mL) was preincubated with 1 mM NADPH and the compound of interest in reaction buffer for 10 min. The reaction was started by adding progesterone spiked with a radioactive tracer (final activity 0.025 mCi) to a final concentration of 500 nM. After 10 min of incubation at 37 °C the reaction was stopped by adding enzyme substrate and product at a final concentration of 1 mM in methanol, followed by shock-freezing in liquid nitrogen. Steroids were separated by thin layer chromatography on SIL G-25 UV254 TLC plates (Macherey-Nagel, Düren, Germany) using chloroform and ethyl acetate (1:4; v:v). Bands were excised and radiolabeled steroids analyzed by scintillation counting using […] Plus cocktail (Zinsser Analytic, Frankfurt am Main, Germany) and a β-counter (Packard, Connecticut, USA). Relative conversion was calculated based on total counts.

[1] = parameters: method as in earlier work; details: ref Zhang et al., 2018, Märtson et al., 2019, Vena et al., 2020, Risum et al., 2021, cited from earlier work
CYP21A2 = target: T2, CYP21A2 (Homo sapiens, UniProt P08686); assay: CYP21A2 activity assay, microsomes of transfected COS-1 cells; format: biochemical; details: cell-free; for IC50: progesterone 500 nM, 10 min
T2 construct: host or cells: COS-1 cells, transient transfection, microsomal fraction
T2 sequence (P08686 1-495): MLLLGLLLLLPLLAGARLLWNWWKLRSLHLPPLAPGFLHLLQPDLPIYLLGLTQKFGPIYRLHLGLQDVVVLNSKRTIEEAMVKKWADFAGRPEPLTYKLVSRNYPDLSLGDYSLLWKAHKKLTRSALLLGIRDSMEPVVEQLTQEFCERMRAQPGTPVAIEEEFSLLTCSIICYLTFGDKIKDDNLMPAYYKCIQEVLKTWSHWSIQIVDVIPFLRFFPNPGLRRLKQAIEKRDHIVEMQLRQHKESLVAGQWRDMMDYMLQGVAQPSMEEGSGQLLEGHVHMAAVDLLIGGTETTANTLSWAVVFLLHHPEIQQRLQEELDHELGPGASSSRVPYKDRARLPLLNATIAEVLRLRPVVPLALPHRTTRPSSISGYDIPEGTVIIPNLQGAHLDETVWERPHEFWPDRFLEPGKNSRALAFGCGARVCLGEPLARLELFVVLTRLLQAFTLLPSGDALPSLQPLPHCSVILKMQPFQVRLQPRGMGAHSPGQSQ
Procedure: as §1, §2

[2] = 30 nM, 10 μM forskolin, relative to forskolin control

Compound	concentrations that block overall steroidogenesis (H295R cells; forskolin-stimulated) [µM]	effect on the steroid profile (H295R cells; forskolin-stimulated, in words)	product/substrate ratios corticosterone/11-DOC and cortisol/cortexolone (apparent CYP11B1 activity) (H295R cells; forskolin-stimulated, in words)	inhibition of CYP17A1 17α-hydroxylase (CYP17A1 17α-hydroxylase)	IC50 (CYP17A1 17α-hydroxylase) [µM]	serum trough concentration ([1]; molar value in brackets) [µM]	serum trough concentration [1] [µg/mL]	inhibition of CYP21A2 (CYP21A2; in words)	IC50 (CYP21A2)	effect on the steroid profile (H295R cells; forskolin-stimulated, in words, listed as Itraconazole)	lower level of the CYP11B2 product aldosterone (H295R cells; [2]) [%]	lower levels of the CYP11B1 products cortisol and corticosterone (H295R cells; [2])	inhibition of cortisol, corticosterone and aldosterone production (H295R cells; 300 nM and higher concentrations)	product/substrate ratio 17α-hydroxyprogesterone/progesterone (apparent CYP17A1 17α-hydroxylase activity) (H295R cells; forskolin-stimulated, in words)
C[C@@H](c1nc(-c2ccc(C#N)cc2)cs1)[C@](O)(Cn1cncn1)c1cc(F)ccc1F [isavuconazole]	≥ 1	concentration-dependent decrease in all measured steroids	did not indicate an inhibition of CYP11B1 and CYP11B2	very weakly	> 10	~1	4	weak inhibition	8.1 µM and 8.14 µM	–	–	–	–	–
CCC(C)n1ncn(-c2ccc(N3CCN(c4ccc(OCC5COC(Cn6cncn6)(c6ccc(Cl)cc6Cl)O5)cc4)CC3)cc2)c1=O (centres unmarked) [itraconazole]	≥ 1	lowered the levels of all steroids in a concentration-dependent manner	less potently	–	> 10	–	0.5 to 1	–	> 10 µM	inhibited the production of corticosterone and aldosterone and, to a lesser extent, of cortisol in a concentration-dependent manner	–	–	–	–
CC[C@@H]([C@H](C)O)n1ncn(-c2ccc(N3CCN(c4ccc(OC[C@@H]5CO[C@@](Cn6cncn6)(c6ccc(F)cc6F)C5)cc4)CC3)cc2)c1=O [posaconazole, Posaconazole]	–	did not affect progesterone and 11-DOC levels	decreased with increasing concentrations	moderately inhibited	1.12	–	> 0.7	–	> 10 µM	–	~50	about 40%	complete inhibition	indicated 17α-hydroxylase inhibition
